Source: publication PMC12251151, “Understanding Anti-Obesity Potential of Four Porphyrin Compounds by Investigating Pancreatic Lipase Inhibition” (Molecules, 2025)
Read-outs that look alike come from different tables or passages of the source.

Key:
pancreatic lipase (PL) [1] = biological target: T1, pancreatic lipase (PL) (Sus scrofa, UniProt P00591); experiment: Pancreatic lipase inhibition assay (4-nitrophenyl laurate substrate, absorbance 420 nm); assay type: biochemical, porcine; details: 37 °C, 2 h, pH 8.2 Tris-HCl
T1 construct: lipase (porcine pancreas); purchased Shanghai Yuanye Co., Ltd., Shanghai, China; host or cells: porcine pancreas
T1 sequence (P00591 1-450): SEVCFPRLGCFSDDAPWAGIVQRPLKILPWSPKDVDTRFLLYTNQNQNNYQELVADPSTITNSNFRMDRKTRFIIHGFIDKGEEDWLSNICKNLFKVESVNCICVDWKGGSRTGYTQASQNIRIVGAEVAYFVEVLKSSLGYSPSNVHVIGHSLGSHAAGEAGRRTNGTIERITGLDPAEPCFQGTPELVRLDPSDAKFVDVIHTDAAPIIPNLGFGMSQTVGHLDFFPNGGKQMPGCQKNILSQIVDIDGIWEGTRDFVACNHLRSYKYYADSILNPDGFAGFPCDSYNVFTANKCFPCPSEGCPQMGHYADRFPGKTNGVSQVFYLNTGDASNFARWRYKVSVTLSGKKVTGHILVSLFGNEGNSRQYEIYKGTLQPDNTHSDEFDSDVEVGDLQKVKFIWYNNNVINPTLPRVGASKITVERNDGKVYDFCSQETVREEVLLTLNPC
Method: A total of 250 mg pancreatic lipase was dissolved in 50 mL ultrapure water. After centrifugation at 5000 r/min for 10 min, the supernatant was taken. Then, 80 mg of 4-nitrophenyl laurate was dissolved in 100 mL of 5 mmol/L sodium acetate solution (pH 5.0, containing 1% triton x-100), and dissolved in a boiling water bath. After cooling to room temperature, it was set aside. […] The blank sample solutions were chromatographic methanol solutions containing 2%, 5%, and 10% DMSO.
The activity of PL was determined by referring to the method and making appropriate modifications. A total of 200 μL of different concentrations of four porphyrin compounds, 500 μL of 4-nitrophenyl laurate (0.80 mg/mL), 400 μL of Tris-HCl buffer (pH 8.2, 0.1 mol/L), and 300 μL of pancreatic lipase (5 mg/mL) were reacted in an incubator at 37 °C for 2 h. The reaction solution was centrifuged at 12,000 rpm for 5 min, and 200 μL of the supernatant was added to a 96-well plate.

pancreatic lipase (PL) [2] = biological target: T1, pancreatic lipase (PL); experiment: Fluorescence quenching and binding interaction with PL (Stern-Volmer, double logarithmic, Van't Hoff); parameters: species or system porcine; details: for Fluorescence quenching mechanism on PL: Stern-Volmer analysis; for Fluorescence quenching mechanism on PL / ΔH^0 / ΔS^0: 298-310 K; for Kd: read-out: Ka (binding constant) (converted); for ΔH^0 / ΔS^0: Van't Hoff; for Main driving forces of binding to PL: from signs of ΔH^0 and ΔS^0
Description: Judged by the Stern–Volmer equation, the formula is referred to (3):(3) F0/F=1+KSV[Q]=1+Kqτ0[Q],
The modified Stern–Volmer equation [34], formula reference (4):(4) F0/F=e^KSV[Q]=e^Kqτ0[Q],
The double logarithmic equation:(5) logF0−F/F=logKa+nlog[Q],
In the formula, F0 and F are the fluorescence intensities of the enzyme before and after the addition of four porphyrin compounds. KSV and Kq represent the fluorescence quenching constant and the quenching rate constant, respectively. τ0 (10^−8 s) is the average lifetime of the fluorescent molecule in the absence of the fluorescence quencher. [Q] denotes the concentration of the porphyrin compound. Ka is the binding constant. n is the number of binding sites.
The relevant thermodynamic parameters were calculated by Equations (6) and (7), and the Van’t Hoff curves of four porphyrin compounds and enzymes were obtained:(6) lnKa=−ΔH^0/RT+ΔS^0/R, (7) ΔG^0=ΔH^0−TΔS^0=−RTlnKa,
The method of Li et al. was referred to and appropriate changes were made. A series of concentrations of porphyrin compounds were mixed with pancreatic lipase (5 mg/mL) at a volume ratio of 1:1 and incubated at 298, 304, and 310 K for 5 min. The excitation wavelength of the Hitachi fluorescence spectrometer F-7000 ([…], Japan) was set to 280 nm, the slit width was set to 5 nm, and the scanning range was set to 300–500 nm. In order to eliminate the influence of ‘internal filtering effect’ [42], the following formula is used for correction. Fcor=Fobse^(Aex+Aem)/2 , where Fcor and Fobs are the corrected fluorescence intensity and the experimentally measured fluorescence intensity, and Aex and Aem are the UV absorption values of the system at the excitation and emission wavelengths, respectively.

pancreatic lipase (PL) [3] = biological target: T1, pancreatic lipase (PL); experiment: FT-IR spectroscopy secondary structure analysis of PL-porphyrin complex; parameters: species or system porcine; details: PL:porphyrin molar ratio 1:2; for β-Antiparallel of PL in complex: PL alone 7.78 ± 0.02; for Random Coil of PL in complex: PL alone 16.30 ± 0.04; for β-Turn of PL in complex: PL alone 23.12 ± 0.03; for α-Helix of PL in complex: PL alone 25.48 ± 0.06; for β-Sheet of PL in complex: PL alone 27.31 ± 0.06
Description: The effects of four porphyrin compounds on the secondary structure of PL were further studied by FT-IR spectroscopy. The amide I band (1700–1600 cm^−1, mainly C=O stretching) and the amide II band (1600–1500 cm^−1, mainly C-N stretching) are important spectral bands for studying the secondary structure of proteins. Because the regions of amide I band located at 1649–1660, 1615–1637, 1661–1680, 1638–1648, and 1681–1692 cm^−1 after curve fitting represent α-helix, β-sheet, β-turn, random coil and β-antiparallel, respectively, and the signal intensity is high, it is more widely evaluated than the amide II band.
The pancreatic lipase-porphyrin compound solution with a molar ratio of 1:2 was placed in a freeze-centrifugal concentrator Auto R1-plus (Beijing Jiaimu, Beijing, China). The dried solid samples were obtained and mixed with dried KBr, ground, and pressed into tablets, and then detected by Nicolet IS-50 (ThermoFisher, Waltham, MA, USA) instrument. The scanning range was 400–4000 cm^−1 and the resolution was 4 cm^−1. Peakfit V4.12 software was used to fit the amide I region (1600–1700 cm^−1) of pancreatic lipase.

O=C(O)c1ccc(-c2c3nc(c(-c4ccc(C(=O)O)cc4)c4ccc([nH]4)c(-c4ccc(C(=O)O)cc4)c4nc(c(-c5ccc(C(=O)O)cc5)c5ccc2[nH]5)C=C4)C=C3)cc1 [TCPP, meso-Tetra (4-carboxyphenyl) porphine]
IC50 (pancreatic lipase (PL) [1]): 100000 nM | Fluorescence quenching mechanism on PL (pancreatic lipase (PL) [2]): static quenching | Kq (quenching rate constant) (pancreatic lipase (PL) [2]; T 298 K): 4.60 ± 0.07 ×10^12 L/mol/s | Ksv (fluorescence quenching constant) (pancreatic lipase (PL) [2]; T 298 K): 4.60 ± 0.07 ×10^4 L/mol | n (number of binding sites) (pancreatic lipase (PL) [2]; T 298 K): 1.30 | ΔG^0 (pancreatic lipase (PL) [2]; T 298 K): -8.076 ± 0.0096 kcal/mol | Kd (pancreatic lipase (PL) [2]; T 298 K): 1190 nM | Kq (quenching rate constant) (pancreatic lipase (PL) [2]; T 304 K): 4.59 ± 0.06 ×10^12 L/mol/s | Ksv (fluorescence quenching constant) (pancreatic lipase (PL) [2]; T 304 K): 4.59 ± 0.06 ×10^4 L/mol | n (number of binding sites) (pancreatic lipase (PL) [2]; T 304 K): 1.26 | ΔG^0 (pancreatic lipase (PL) [2]; T 304 K): -7.945 ± 0.0311 kcal/mol | Kd (pancreatic lipase (PL) [2]; T 304 K): 1940 nM | Kq (quenching rate constant) (pancreatic lipase (PL) [2]; T 310 K): 4.50 ± 0.06 ×10^12 L/mol/s | Ksv (fluorescence quenching constant) (pancreatic lipase (PL) [2]; T 310 K): 4.50 ± 0.06 ×10^4 L/mol | n (number of binding sites) (pancreatic lipase (PL) [2]; T 310 K): 1.16 | ΔG^0 (pancreatic lipase (PL) [2]; T 310 K): -7.739 ± 0.019 kcal/mol | Kd (pancreatic lipase (PL) [2]; T 310 K): 3500 nM | ΔH^0 (pancreatic lipase (PL) [2]): -16.39 ± 0.017 kcal/mol | ΔS^0 (pancreatic lipase (PL) [2]): −116.60 ± 0.11 J/mol/k | Main driving forces of binding to PL (pancreatic lipase (PL) [2]): hydrogen bonds and van der Waals forces | β-Antiparallel of PL in complex (pancreatic lipase (PL) [3]): 4.82 ± 0.01% | Random Coil of PL in complex (pancreatic lipase (PL) [3]): 24.70 ± 0.06% | β-Turn of PL in complex (pancreatic lipase (PL) [3]): 10.43 ± 0.03% | α-Helix of PL in complex (pancreatic lipase (PL) [3]): 22.26 ± 0.08% | β-Sheet of PL in complex (pancreatic lipase (PL) [3]): 37.79 ± 0.12%

Oc1ccc(-c2c3nc(c(-c4ccc(O)cc4)c4ccc([nH]4)c(-c4ccc(O)cc4)c4nc(c(-c5ccc(O)cc5)c5ccc2[nH]5)C=C4)C=C3)cc1 [THPP, 5,10,15,20-Tetrakis (4-hydroxyphenyl) porphyrin]
IC50 (pancreatic lipase (PL) [1]): 97500 nM | Fluorescence quenching mechanism on PL (pancreatic lipase (PL) [2]): mixed quenching dominated by static quenching and supplemented by dynamic quenching | Kq (quenching rate constant) (pancreatic lipase (PL) [2]; T 298 K): 1.36 ± 0.02 ×10^12 L/mol/s | Ksv (fluorescence quenching constant) (pancreatic lipase (PL) [2]; T 298 K): 1.36 ± 0.02 ×10^4 L/mol | n (number of binding sites) (pancreatic lipase (PL) [2]; T 298 K): 1.52 | ΔG^0 (pancreatic lipase (PL) [2]; T 298 K): -8.91 ± 0.0406 kcal/mol | Kd (pancreatic lipase (PL) [2]; T 298 K): 292 nM | Kq (quenching rate constant) (pancreatic lipase (PL) [2]; T 304 K): 1.17 ± 0.03 ×10^12 L/mol/s | Ksv (fluorescence quenching constant) (pancreatic lipase (PL) [2]; T 304 K): 1.17 ± 0.03 ×10^4 L/mol | n (number of binding sites) (pancreatic lipase (PL) [2]; T 304 K): 1.38 | ΔG^0 (pancreatic lipase (PL) [2]; T 304 K): -8.363 ± 0.0263 kcal/mol | Kd (pancreatic lipase (PL) [2]; T 304 K): 968 nM | Kq (quenching rate constant) (pancreatic lipase (PL) [2]; T 310 K): 1.11 ± 0.04 ×10^12 L/mol/s | Ksv (fluorescence quenching constant) (pancreatic lipase (PL) [2]; T 310 K): 1.11 ± 0.04 ×10^4 L/mol | n (number of binding sites) (pancreatic lipase (PL) [2]; T 310 K): 1.33 | ΔG^0 (pancreatic lipase (PL) [2]; T 310 K): -8.023 ± 0.022 kcal/mol | Kd (pancreatic lipase (PL) [2]; T 310 K): 2200 nM | ΔH^0 (pancreatic lipase (PL) [2]): -30.946 ± 0.0263 kcal/mol | ΔS^0 (pancreatic lipase (PL) [2]): −309.86 ± 0.12 J/mol/k | Main driving forces of binding to PL (pancreatic lipase (PL) [2]): hydrogen bonds and van der Waals forces | β-Antiparallel of PL in complex (pancreatic lipase (PL) [3]): 8.32 ± 0.01% | Random Coil of PL in complex (pancreatic lipase (PL) [3]): 20.38 ± 0.02% | β-Turn of PL in complex (pancreatic lipase (PL) [3]): 19.70 ± 0.04% | α-Helix of PL in complex (pancreatic lipase (PL) [3]): 13.96 ± 0.04% | β-Sheet of PL in complex (pancreatic lipase (PL) [3]): 37.64 ± 0.05%
